{"source": "patent EP4186514A1", "about": "“PHARMACEUTICAL COMPOSITION FOR PREVENTING OR TREATING CHOLANGITIS OR LIVER DISEASE CAUSED BY CHOLANGITIS COMPRISING ADENOSINE DERIVATIVE” (Future Medicine Co., Ltd., priority 2021, dated 2023)", "key": {"[1]": {"experiment": "Kinetic solubility", "format": "physicochemical", "settings": "listed as compound of the formula A", "method": "(§1) In order to test the physicochemical properties of the adenosine derivative of the inventive concept, experiments were conducted on the compound of the formula A in vitro, and the results are shown in Table 3. Plasma stability and protein binding were measured using rat and human plasma."}, "[2]": {"experiment": "PAMPA", "format": "in vitro ADME", "method": "as §1"}, "[3]": {"experiment": "Plasma stability, human plasma", "format": "in vitro ADME", "method": "as §1"}, "[4]": {"experiment": "Pharmacokinetic test in rats (Experimental Examples 3 and 4)", "format": "in vivo", "settings": "male, SD, rat, plasma, po", "method": "In order to test the ADME properties of the adenosine derivative of the inventive concept after oral administration, pharmacokinetic properties of the compound of the formula A were measured in vivo.\nIntravenous administration was performed through a tube inserted into the femoral vein, and oral administration was performed using oral gavage.\n(§2) After the administration, the experimental animals' blood was taken at predetermined time intervals for 24 hours. Then, the blood was centrifuged to separate plasma. The plasma samples were pretreated with a suitable organic solvent, and then the concentration of the plasma samples was analyzed by LC-MS/MS. The blood concentration-time data of the compound of the formula A was analyzed using WinNonlin (Pharsight, USA), and graphs of the blood concentration-time data are shown in FIGS. 5 through 9. The results of noncompartmental pharmacokinetic parameters calculated from the blood concentration-time data are shown in Tables 5 through 9. In FIGS. 5 through 9, I.V. represents an intravenous administration group, P.O. represents an oral administration group, and the definition of each parameter in Tables 5 through 9 is shown in Table 10.\nThus, the adenosine derivative of the inventive concept is more suitable for oral administration than for intravenous administration."}, "[5]": {"experiment": "Pharmacokinetic test in mice (Experimental Example 5)", "format": "in vivo", "settings": "male, ICR, mouse, plasma, oral administration of 10 mg/kg, read-out: half-life T1/2 (converted)", "method": "as §2, with “In order to test the ADME properties of the adenosine derivative of the inventive concept after oral administration, pharmacokinetic properties of the compound of the formula A were measured in vivo. […] Intravenous administration was performed through a tube inserted into the femoral vein, and oral administration was performed using oral gavage. [Table 4] [table] After” for “After”, “10. FIG. 7 and Table 7 show a graph and parameter values obtained from the blood concentration-time data of Experimental Example 5. […] Thus, the adenosine derivative is suitable for oral administration.” for “10.”"}, "[6]": {"experiment": "Cytotoxicity, Cyto X cell viability assay kit", "format": "cell-based", "settings": "in each cell line"}, "[7]": {"test_system": "each cell line", "experiment": "Cytotoxicity, Cyto X cell viability assay kit", "format": "cell-based", "settings": "summary Table 11"}, "[8]": {"experiment": "Storage stability of oral administration agent in 0.5 wt % methylcellulose (UPLC)", "format": "physicochemical", "method": "0.5 wt % methylcellulose, which can be used as an excipient for oral administration, was added to the compound of the formula A, sonicated and homogenized, and then divided into a group to be stored at room temperature or at 4° C., and after 1, 3, 7, and 10 days, the stability was measured by comparing the concentration with 0.5% methyl cellulose as the control group using Waters UPLC and he results are shown in Table 12."}, "[9]": {"biological_target": "T1, A2A adenosine receptor (Homo sapiens, UniProt P29274)", "T1 construct": "expressed in transfected cells; host or cells: HEK 293 cell", "T1 sequence (P29274 whole entry)": "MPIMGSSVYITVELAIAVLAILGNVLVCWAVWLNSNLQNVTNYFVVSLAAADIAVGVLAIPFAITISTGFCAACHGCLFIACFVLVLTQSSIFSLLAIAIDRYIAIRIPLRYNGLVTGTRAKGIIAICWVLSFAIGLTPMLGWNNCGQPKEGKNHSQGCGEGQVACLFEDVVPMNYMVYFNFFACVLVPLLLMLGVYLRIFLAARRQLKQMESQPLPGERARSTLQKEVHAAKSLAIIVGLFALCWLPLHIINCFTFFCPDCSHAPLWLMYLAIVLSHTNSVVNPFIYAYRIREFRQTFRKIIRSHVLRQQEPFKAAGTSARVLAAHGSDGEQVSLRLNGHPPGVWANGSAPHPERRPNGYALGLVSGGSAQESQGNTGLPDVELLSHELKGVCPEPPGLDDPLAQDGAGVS", "experiment": "Radioligand binding affinity, A2A adenosine receptor ([3H]CGS-21680, HEK 293 cell)", "settings": "percentage inhibition of specific binding of 10 µM", "description": "The adenosine derivatives of the present invention were assayed for binding affinity and selectivity for A1, A2A and A3 receptors among human adenosine receptor (hAR) as follows.\nAdenosine deaminase was added alone or in combination with a radioactive ligand when cerebral meninges were incubated at 30° C. for 30 min. Each of the compounds synthesized in the examples was measured for IC50 at least 6 different concentrations, and the measurements were analyzed using SigmaPlot software to determine Ki values."}, "[10]": {"test_system": "rats", "settings": "rat, in vivo", "description": "In order to test the single-dose toxicity of the compound of the formula A, a single dose of 2,000 mg/kg of the compound of the formula A was administered to each of five male rats and five female rats."}}}
{"smiles": "O[C@@H]1[C@H](O)CS[C@H]1n1cnc2c(NCc3cccc(Cl)c3)nc(Cl)nc21", "note": "[Example 2, (2R,3R,4S)-2-(2-chloro-6-(3-chlorobenzylamino)-9H-purin-9-yl)tetrahydrothiophen-3,4-diol]", "values": [{"measurement": "Kinetic solubility", "setting": "[1]", "result": 148.8, "unit": "µg/mL"}, {"measurement": "PAMPA", "setting": "[2]", "result": -4.49}, {"measurement": "Plasma stability", "setting": "[3]", "result": 98.9}, {"measurement": "bioavailability", "setting": "[4]; read-out: bioavailability Ft", "result": "≥ 99.9", "unit": "%"}, {"measurement": "half-life", "setting": "[4]; read-out: half-life T1/2", "result": "≥ 3.34", "unit": "h"}, {"measurement": "half-life", "setting": "[5]", "result": "~3.61", "unit": "h"}, {"measurement": "IC50", "setting": "[6]", "result": "≥ 10", "unit": "µM"}, {"measurement": "Toxicity, Cytotoxicity evaluation", "setting": "[7]", "result": "Not detected"}, {"measurement": "Stability (%)", "setting": "[8]; Stored at 4°C, After 1 day, 200 µg/ml", "result": "118±21.4", "unit": "%"}, {"measurement": "Stability (%)", "setting": "[8]; Stored at 4°C, After 1 day, 1000 µg/ml", "result": "76.5±11.7", "unit": "%"}, {"measurement": "Stability (%)", "setting": "[8]; Stored at 4°C, After 1 day, 3000 µg/ml", "result": "84.8±17.9", "unit": "%"}, {"measurement": "Stability (%)", "setting": "[8]; Stored at 4°C, After 3 days, 200 µg/ml", "result": "125±40.2", "unit": "%"}, {"measurement": "Stability (%)", "setting": "[8]; Stored at 4°C, After 3 days, 1000 µg/ml", "result": "87.6±9.26", "unit": "%"}, {"measurement": "Stability (%)", "setting": "[8]; Stored at 4°C, After 3 days, 3000 µg/ml", "result": "94.8±2.55", "unit": "%"}, {"measurement": "Stability (%)", "setting": "[8]; Stored at 4°C, After 7 days, 200 µg/ml", "result": "88.3±17.3", "unit": "%"}, {"measurement": "Stability (%)", "setting": "[8]; Stored at 4°C, After 7 days, 1000 µg/ml", "result": "80.1±27.7", "unit": "%"}, {"measurement": "Stability (%)", "setting": "[8]; Stored at 4°C, After 7 days, 3000 µg/ml", "result": "89.7±8.30", "unit": "%"}, {"measurement": "Stability (%)", "setting": "[8]; Stored at 4°C, After 10 days, 200 µg/ml", "result": "93.8±44.8", "unit": "%"}, {"measurement": "Stability (%)", "setting": "[8]; Stored at 4°C, After 10 days, 1000 µg/ml", "result": "79.5±22.0", "unit": "%"}, {"measurement": "Stability (%)", "setting": "[8]; Stored at 4°C, After 10 days, 3000 µg/ml", "result": "99.0±3.87", "unit": "%"}, {"measurement": "Stability (%)", "setting": "[8]; Stored at RT, After 1 day, 200 µg/ml", "result": "84.3±4.10", "unit": "%"}, {"measurement": "Stability (%)", "setting": "[8]; Stored at RT, After 1 day, 1000 µg/ml", "result": "82.7±16.3", "unit": "%"}, {"measurement": "Stability (%)", "setting": "[8]; Stored at RT, After 1 day, 3000 µg/ml", "result": "90.5±6.44", "unit": "%"}, {"measurement": "Stability (%)", "setting": "[8]; Stored at RT, After 3 days, 200 µg/ml", "result": "76.3±8.12", "unit": "%"}, {"measurement": "Stability (%)", "setting": "[8]; Stored at RT, After 3 days, 1000 µg/ml", "result": "82.7±37.0", "unit": "%"}, {"measurement": "Stability (%)", "setting": "[8]; Stored at RT, After 3 days, 3000 µg/ml", "result": "80.5±5.01", "unit": "%"}, {"measurement": "Stability (%)", "setting": "[8]; Stored at RT, After 7 days, 200 µg/ml", "result": "80.9±14.6", "unit": "%"}, {"measurement": "Stability (%)", "setting": "[8]; Stored at RT, After 7 days, 1000 µg/ml", "result": "75.4±6.66", "unit": "%"}, {"measurement": "Stability (%)", "setting": "[8]; Stored at RT, After 7 days, 3000 µg/ml", "result": "101±13.2", "unit": "%"}, {"measurement": "Stability (%)", "setting": "[8]; Stored at RT, After 10 days, 200 µg/ml", "result": "90.3±23.2", "unit": "%"}, {"measurement": "Stability (%)", "setting": "[8]; Stored at RT, After 10 days, 1000 µg/ml", "result": "94.2±9.17", "unit": "%"}, {"measurement": "Stability (%)", "setting": "[8]; Stored at RT, After 10 days, 3000 µg/ml", "result": "92.2±2.17", "unit": "%"}, {"measurement": "% hA2A", "setting": "[9]", "result": 17.7, "unit": "%"}, {"measurement": "death after single dose", "setting": "[10]", "result": "no animals died"}]}
